Measurements reported in US20240174690A1, “ANNULATED 2-AMINO-3-CYANO THIOPHENES AND DERIVATIVES FOR THE TREATMENT OF CANCER” (BOEHRINGER INGELHEIM INTERNATIONAL GMBH, priority 2021, published 2024).

Key:
CYP3A4 = CYP3A4 (Homo sapiens (Human), UniProt P08684); experiment: Mechanism based inhibition of CYP3A4 assay (MBI 3A4); type: in vitro ADME; settings: hydroxy-midazolam formation after 30 min vs 0 min preincubation, 25 uM, human liver microsomes
Protocol: After preincubation, the incubate is diluted 1:10 and the substrate midazolam is added for the main incubation (15 min). The main incubation is quenched with acetonitrile and the formation of hydroxy-midazolam is quantified via LC/MS-MS. The formation of hydroxy-midazolam from the 30 min preincubation relative to the formation from the 0 min preincubation is used as a readout. Values of less than 100% mean that the substrate midazolam is metabolized to a lower extent upon 30 min preincubation compared to 0 min preincubation. In general low effects upon 30 min preincubation are desired (corresponding to values close to 100%/not different to the values determined with water control).

[1] = tested on: KRAS G12V-dependent Ba/F3 cells; experiment: Ba/F3 proliferation assay, KRAS G12V; type: cell-based; settings: Mus musculus, BaF3, 72 h, AlamarBlue;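 note: proliferation IC50 in KRAS G12V-dependent Ba/F3 cells read by AlamarBlue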
Protocol: Plasmids containing KRASG12 mutants (i.e. […], G12C, G12V) are obtained from GeneScript. To generate KRASG12-dependent Ba/F3 models, Ba/F3 cells are transduced with retroviruses containing vectors that harbor KRASG12 isoforms. Platinum-E cells (Cell Biolabs) are used for retrovirus packaging. Retrovirus is added to Ba/F3 cells. To ensure infection, 4 μg/mL polybrene is added and cells are spinfected. […] Cells with an infection efficiency of 10% to 20% are further cultivated and puromycin selection with 1 μg/mL is initiated. As a control, parental Ba/F3 cells are used to show selection status. Selection is considered successful when parental Ba/F3 cells cultures died. To evaluate the transforming potential of KRASG12 mutations, the growth medium is no longer supplemented with IL-3. Ba/F3 cells harboring the empty vector are used as a control. Approximately ten days before conducting the experiments, puromycin is left out.
Compounds are added using an Access Labcyte Workstation with a Labcyte Echo 550 or 555 accoustic dispenser. All treatments are performed in technical duplicates. […] AlamarBlue™ (ThermoFisher), a viability stain, is added and fluorescence measured in the PerkinElmer Envision HTS Multilabel Reader. The raw data are imported into and analyzed with the Boehringer Ingelheim proprietary software MegaLab (curve fitting based on the program PRISM, GraphPad Inc.).

[2] = Plasma protein binding assay (PPB), equilibrium dialysis, 10% FCS in PBS; type: in vitro ADME; settings: bovine, read-out: PPB 10% FCS (% fu)
Protocol: Binding of test compounds to plasma was determined using equilibrium dialysis (ED) and quantitative mass spectrometry interfaced with liquid chromatography (LC-MS). In brief, ED was performed with dialysis devices consisting of two chambers separated by a semipermeable membrane with a molecular weight cut-off of 5-10 kg/mol. One chamber was filled with 10% FCS in PBS containing 1-10 μmol/L test compound and the other chamber was filled with phosphate-buffer saline (PBS) with or without dextran. The dialysis chamber was incubated for 3-5 hours at 37° C. After incubation, protein was precipitated from aliquots of each chamber and the concentration of test compound in the supernatant of the plasma-containing compartment (Cserum) and of the buffer-containing compartment (Cbuffer) was determined by LC-MS. The fraction of unbound test compound (not bound to plasma) (fu) was calculated according to the following equation: […]

AsPC-1 cells = experiment: AsPC-1 CTG proliferation assay (120 h) (pancreatic cancer, G12D); type: cell-based; settings: Homo sapiens, ASPC1
Protocol: AsPC-1 CTG Proliferation Assay (120 h) (Pancreatic Cancer, G12D)
The CTG assay is designed to measure quantitatively the proliferation of AsPC-1 cells (ATCC […]), using the CellTiter Glow Assay Kit (Promega G7571). Cells are grown in RPMI medium (ATCC) supplemented with Fetal Calf Serum (Life Technologies, Gibco BRL, Cat. No. 10270-106). On “day 0” 2000 AsPC-1 cells are seeded in 60 μL RPMI ATCC+10% FCS+Penstrep in a 384-well plate, flat and clear bottom (Greiner, PNr. 781091). Cells are then incubated in the plates at 37° C. in a CO2 incubator overnight. On day 1, compounds (10 mM stock in DMSO) are added with the ECHO acoustic liquid handler system (Beckman Coulter), including DMSO controls. Plates are incubated for 120 h, and cell viability is measured using CellTiter-Glo luminescent cell viability reagent (Promega product code G7570). Viability (stated as percent of control) is defined as relative luminescence units RLU of each well divided by the RLU of cells in DMSO controls. IC50 values are determined from viability measurements by non-linear regression using a four-parameter model.

SK-CO-1 cells = experiment: SK-CO-1 CTG proliferation assay (120 h) (CRC, G12V); type: cell-based; settings: Homo sapiens; SK-CO-1 cells (CRC, G12V), CTG 120 h
Protocol: SK-CO-1 CTG Proliferation Assay (120 h) (CRC, G12V)
SK-CO-1 cells (ATCC HTB-39) are dispensed into 384-well plates, flat and clear bottom (Greiner, PNr. 781091) at a density of 500 cells per well in 60 μL EMEM (Sigma M5650)+10% Fetal Calf Serum (HyClone, PNr.: SH30084.03) and incubated at 37° C. in a CO2 incubator overnight. The next day, compounds (10 mM stock in DMSO) are added with the ECHO acoustic liquid handler system (Beckman Coulter), including DMSO controls. Plates are incubated for 120 h, and cell viability is measured using CellTiter-Glo luminescent cell viability reagent (Promega product code G7570). Viability (stated as percent of control) is defined as relative luminescence units RLU of each well divided by the RLU of cells in DMSO controls. IC50 values are determined from viability measurements by non-linear regression using a four-parameter model.

CYP3A4, sequence (P08684 whole entry): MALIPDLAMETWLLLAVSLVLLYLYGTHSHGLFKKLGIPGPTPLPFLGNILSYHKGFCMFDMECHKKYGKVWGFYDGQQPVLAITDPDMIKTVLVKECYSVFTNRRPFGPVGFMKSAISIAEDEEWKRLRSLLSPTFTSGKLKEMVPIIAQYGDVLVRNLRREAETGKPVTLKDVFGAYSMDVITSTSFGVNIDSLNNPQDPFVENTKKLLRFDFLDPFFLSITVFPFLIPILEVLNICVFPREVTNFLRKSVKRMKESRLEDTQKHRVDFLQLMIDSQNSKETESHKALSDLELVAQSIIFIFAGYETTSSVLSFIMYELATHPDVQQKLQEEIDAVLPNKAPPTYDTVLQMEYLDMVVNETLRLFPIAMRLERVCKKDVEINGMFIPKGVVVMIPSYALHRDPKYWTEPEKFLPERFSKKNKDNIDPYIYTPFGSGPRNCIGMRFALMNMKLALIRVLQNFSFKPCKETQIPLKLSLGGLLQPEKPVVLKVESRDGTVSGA

Row | MBI 3A4 (CYP3A4) | IC50 [1] | fraction unbound [2] | IC50 (AsPC-1 cells) | IC50 (SK-CO-1 cells) | Structure (SMILES)
1 | 79% | 316 nM | 0.94 | 1700 nM | 2080 nM | C[C@H](Oc1cc(N2C[C@H](C)N[C@@H](C)C2)nc(-c2onc3c2CCC[C@@]32CCCc3sc(N)c(C#N)c32)n1)[C@@H]1CCCN1C [I-6]
2 | 25% | 258 nM | 0.77 | 512 nM | 532 nM | C[C@H](Oc1cc(N2C[C@H](C)NC3(CC3)C2)nc(-c2onc3c2CCC[C@@]32CCCc3sc(N)c(C#N)c32)n1)[C@@H]1CCCN1C [I-8]
3 | 78% | 416 nM | 0.33 | 565 nM | 530 nM | C[C@H](Oc1cc(N2CC[C@H](N(C)C)C2)nc(-c2onc3c2CCC[C@@]32CCCc3sc(N)c(C#N)c32)n1)[C@@H]1CCCN1C [I-11]
4 | 75% | 304 nM | 0.36 | 511 nM | 872 nM | C[C@H](Oc1cc(N2CC[C@H](N(C)C)C2)nc(-c2noc3c2CCC[C@@]32CCCc3sc(N)c(C#N)c32)n1)[C@@H]1CCCN1C [II-49]
5 | 54% | 393 nM | 0.38 | 142 nM | 802 nM | C[C@H](Oc1cc(N2CCNC[C@]23CCOC3)nc(-c2noc3c2CCC[C@@]32CCCc3sc(N)c(C#N)c32)n1)[C@@H]1CCCN1C [II-50]
6 | 80% | 285 nM | 0.29 | 825 nM | 566 nM | C[C@H](Oc1cc(-n2cc3c(n2)CCNC3)nc(-c2noc3c2CCC[C@@]32CCCc3sc(N)c(C#N)c32)n1)[C@@H]1CCCN1C [II-53]
7 | 31% | 157 nM | 0.3 | 67 nM | 464 nM | C[C@H](Oc1cc(N2CCNC3(CC3)C2)nc(-c2noc3c2CCC[C@@]32CCCc3sc(N)c(C#N)c32)n1)[C@@H]1CCCN1C [II-54]
8 | 88% | 302 nM | 0.26 | 748 nM | 754 nM | C[C@H](Oc1cc(N2CCN(C)CC2)nc(-c2noc3c2CCC[C@@]32CCCc3sc(N)c(C#N)c32)n1)[C@@H]1CCCN1C [II-55]
9 | 73% | 166 nM | 0.48 | 378 nM | 554 nM | C[C@H](Oc1cc(N2C[C@H](C)N[C@@H](C)C2)nc(-c2noc3c2CCC[C@@]32CCCc3sc(N)c(C#N)c32)n1)[C@@H]1CCCN1C [II-56]
10 | 61% | 45 nM | 0.5 | 1840 nM | 87 nM | C[C@H](Oc1cc(N2CCC[C@H](O)C2)nc(-c2noc3c2CCC[C@@]32CCCc3sc(N)c(C#N)c32)n1)[C@@H]1CCCN1C [II-57]
11 | 68% | 9 nM | 0.31 | 6420 nM | 90 nM | CO[C@@H]1C[C@@H]([C@H](C)Oc2cc(-n3ccnc3)nc(-c3noc4c3CCC[C@@]43CCCc4sc(N)c(C#N)c43)n2)N(C)C1 [II-58]
12 | 80% | 31 nM | 0.64 | 2240 nM | 67 nM | C[C@H](Oc1cc(N2CCC[C@@H](O)C2)nc(-c2noc3c2CCC[C@@]32CCCc3sc(N)c(C#N)c32)n1)[C@@H]1CCCN1C [II-59]
13 | 53% | 17 nM | 0.18 | 9190 nM | 280 nM | CO[C@@H]1C[C@@H]([C@H](C)Oc2cc(-c3cnn(C)n3)nc(-c3noc4c3CCC[C@@]43CCCc4sc(N)c(C#N)c43)n2)N(C)C1 [II-62]
14 | 74% | 49 nM | 0.06 | 3300 nM | 134 nM | C[C@H](Oc1cc(N2Cc3cnn(C)c3C2)nc(-c2noc3c2CCC[C@@]32CCCc3sc(N)c(C#N)c32)n1)[C@@H]1CCCN1C [II-63]
15 | 71% | 29 nM | 0.41 | 3970 nM | 76 nM | C[C@H](Oc1cc(N2CC[C@@H](O)C2)nc(-c2noc3c2CCC[C@@]32CCCc3sc(N)c(C#N)c32)n1)[C@@H]1CCCN1C [II-66]
16 | 72% | 15 nM | 0.23 | 2800 nM | 60 nM | C[C@H](Oc1cc(C2=CCOCC2)nc(-c2noc3c2CCC[C@@]32CCCc3sc(N)c(C#N)c32)n1)[C@@H]1CCCN1C [II-67]
17 | 74% | 23 nM | 0.09 | 3240 nM | 5570 nM | Cc1cn(C)nc1-c1cc(O[C@@H](C)[C@@H]2CCCN2C)nc(-c2noc3c2CCC[C@@]32CCCc3sc(N)c(C#N)c32)n1 [II-68]
18 | 94% | 7 nM | 0.45 | 1730 nM | 115 nM | C[C@H](Oc1cc(-n2ccnc2)nc(-c2noc3c2CCC[C@@]32CCCc3sc(N)c(C#N)c32)n1)[C@@H]1CCCN1C [II-69]
19 | 64% | 5 nM | 0.44 | 1940 nM | 28 nM | C[C@H](Oc1cc(-n2cncn2)nc(-c2noc3c2CCC[C@@]32CCCc3sc(N)c(C#N)c32)n1)[C@@H]1CCCN1C [II-70]
20 | 79% | 8 nM | 0.59 | 1670 nM | 18 nM | C[C@H](Oc1cc(-c2cc[nH]n2)nc(-c2noc3c2CCC[C@@]32CCCc3sc(N)c(C#N)c32)n1)[C@@H]1CCCN1C [II-71]
21 | 52% | 17 nM | 0.22 | 1810 nM | 43 nM | C[C@H](Oc1cc(N2CCCC2=O)nc(-c2noc3c2CCC[C@@]32CCCc3sc(N)c(C#N)c32)n1)[C@@H]1CCCN1C [II-73]
22 | 81% | 11 nM | 0.48 | 3210 nM | 52 nM | C[C@H](Oc1cc(-c2cnn(C)c2)nc(-c2noc3c2CCC[C@@]32CCCc3sc(N)c(C#N)c32)n1)[C@@H]1CCCN1C [II-74]
23 | 57% | 14 nM | 0.16 | 1560 nM | 23 nM | C[C@H](Oc1cc(N2CCN(C)C2=O)nc(-c2noc3c2CCC[C@@]32CCCc3sc(N)c(C#N)c32)n1)[C@@H]1CCCN1C [II-75]
